Data as given in article PMC13490399, “Induced ubiquitination of the partially disordered estrogen receptor alpha via a 14-3-3 directed molecular glue-PROTAC” (Nature Communications, 2026).
“Also recorded” adds a separate entry of the source.

Key:
14-3-3/ERα complex [1] = target: 14-3-3/ERα complex (Homo sapiens, UniProt P03372+P31947); experiment: FA 14-3-3 titration to ERα peptide with compound, with or without VCB (14-3-3/ERα stabilization); type: binding; settings: for stabilization of the 14-3-3/ERα interaction / stabilization of the 14-3-3/ERα complex with VCB, VCB recruitment: 1 µM compound; for stabilization of the 14-3-3/ERα interaction: without VCB; for stabilization of the 14-3-3/ERα complex with VCB, VCB recruitment: 5 µM VCB
[2] = target: His-tagged VCB complex / biotinylated 14-3-3γ / ERα peptide (Homo sapiens, UniProt P03372+P40337+P61981); experiment: TR-FRET assay of VCB recruitment to 14-3-3γ with ERα peptide; type: binding; settings: 20 µM ERα peptide, 50 nM His-VCB, 50 nM biotinylated 14-3-3γ
[3] = target: 14-3-3ζ/ERα(LBD_F) complex with CRL2^VHL (Homo sapiens, UniProt P03372+P40337+P63104, F591R/P592R/S305A); experiment: In vitro ubiquitination assay (SDS-PAGE, western blot, Alexa Fluor 488 ubiquitin); type: biochemical; settings: for ubiquitination of the 14-3-3ζ/ERα(LBD_F) complex: Coomassie SDS–PAGE, quantified at 15 min
Protocol: Briefly, the 14-3-3ζ/ERα^(LBD_F) complex was incubated with recombinantly expressed and purified UBE1, UBE2D2, UBE2R1, CRL2^VHL and ubiquitin in the presence of ^MGPROTACs and analysed time-dependently using Coomassie-stained SDS–PAGE (Fig. 6a). Ubiquitin conjugation was rapid with higher molecular weight species evident within 5 min (Supplementary Fig. 21) and were quantified at 15 min by Coomassie-stained SDS–PAGE (Fig. 6b, c and Supplementary Fig. 22).
UBE2D2 was selected as a representative of the promiscuous UBE2D family which is known to work with Cullin RING E3 ligases such as CRL2^VHL[48]–[52]. The UBE2R family is known to be more apt at extending polyubiquitin chains[49]–[51], however recent studies have shown that UBE2R1 and UBE2R2 are also capable of installing the first ubiquitin on degrader-targeted substrates with CRL2^VHL[53],[54].
The reaction was quenched with reducing SDS sample buffer. The protein species were resolved by SDS-PAGE on a 10% bis-tris NuPAGE gel using MOPS running buffer, run at 175 V for 50 min. […] Proteins were transferred to a nitrocellulose membrane either by wet transfer at 90 V for 90 min, or using an iBlot 2 Gel Transfer Device (Invitrogen). […] For an example of presentation of the full scan blots, see Supplementary Fig. S23 or the Source Data file.

NanoLuc–VHL [4] = target: T1, NanoLuc–VHL (Homo sapiens, UniProt P40337); experiment: cell-based; settings: IC50, VHL probe displacement (BRET), live (non-permeabilized) MCF-7 cells, 4 h
NanoLuc–VHL [5] = target: T1, NanoLuc–VHL; settings: MCF-7 cells, in-cell VHL target engagement
14-3-3/ERα complex [6] = experiment: 14-3-3 immunoprecipitation–mass spectrometry (IP–MS) in MCF-7 cells; settings: MCF-7, 10 μM CV2a, 24 h; not statistically significant (p > 0.05)
14-3-3σ/ERα complex [7] = target: T2, 14-3-3σ/ERα complex (Homo sapiens, UniProt P03372+P31947); experiment: FA compound titration to 14-3-3σ/ERα phosphopeptide complex; type: binding; settings: 1 µM 14-3-3σ and 10 nM ERα peptide
14-3-3σ/ERα complex [8] = target: T2, 14-3-3σ/ERα complex; settings: previously reported; read-out: EC50, binding to the 14-3-3σ/ERα complex; cited from earlier work

SMILES: COCC1CCC2C1=CC1(C)C(=C(C(C)CNC(C)=O)CC1O)C(OC1OC(CO)C(O)C(O)C1O)C(O)C2C (stereo not drawn)
- stabilization of the 14-3-3/ERα interaction (14-3-3/ERα complex [1]): stabilizes the 14-3-3/ERα interaction

SMILES: C=CC(C)(C)OCC1OC(OC2C3=C(C(C)CNC(=O)CCCCCCCCCCCC(=O)NC(C(=O)N4CC(O)CC4C(=O)NCc4ccc(-c5scnc5C)cc4)C(C)(C)C)CC(O)C3(C)C=C3C(COC)CCC3C(C)C2O)C(O)C(O)C1O (stereo not drawn) [(S-OH)-CV2a]
- stabilization of the 14-3-3/ERα complex with VCB, VCB recruitment (14-3-3/ERα complex [1]): failed to recruit VCB
- stabilization of the 14-3-3/ERα interaction (14-3-3/ERα complex [1]): stabilized the 14-3-3/ERα complex similarly to CV2a
- VCB recruitment to 14-3-3, TR-FRET signal [2]: no TR-FRET signal
- ubiquitination of the 14-3-3ζ/ERα(LBD_F) complex [3]: completely abrogated ubiquitination

SMILES: C=CC(C)(C)OCC1OC(OC2C3=C(C(C)CNC(=O)CCC(=O)NC(C(=O)N4CC(O)CC4C(=O)NCc4ccc(-c5scnc5C)cc4)C(C)(C)C)CC(O)C3(C)C=C3C(COC)CCC3C(C)C2O)C(O)C(O)C1O (stereo not drawn) [CV0a]
- stabilization of the 14-3-3/ERα complex with VCB, VCB recruitment (14-3-3/ERα complex [1]): negatively cooperative
- IC50 (NanoLuc–VHL [4]): > 10000 nM

SMILES: C=CC(C)(C)OCC1OC(OC2C3=C(C(C)CNC(=O)CCCCCCCCCCCC(=O)NC(C(=O)N4CC(O)CC4C(=O)NCc4ccc(-c5scnc5C)cc4)C(C)(C)C)CC(O)C3(C)C=C3C(COC)CCC3C(C)C2O)C(O)C(O)C1O (stereo not drawn) [CV2a]
- enhancement of ERα binding to 14-3-3, two-dimensional FA titration (14-3-3/ERα complex [1]; CV2a titration in the absence of VCB): up to 2.5 fold
- enhancement of ERα binding to 14-3-3, two-dimensional FA titration (14-3-3/ERα complex [1]; high CV2a and VCB concentrations): over 23 fold
- VCB recruitment to 14-3-3, TR-FRET signal [2]: unable to recruit VHL in the absence of ERα peptide; also recorded: extended recruitment window
- ubiquitination of the 14-3-3ζ/ERα(LBD_F) complex [3]: robust polyubiquitination
- cell permeability (NanoLuc–VHL [5]): cell-permeable
- ERα enrichment in the 14-3-3 pull-down (14-3-3/ERα complex [6]): ~ 2.5 fold

SMILES: C=CC(C)(C)OCC1OC(OC2C3=C(C(C)CNC(=O)CCOCCOCCOCCC(=O)NC(C(=O)N4CC(O)CC4C(=O)NCc4ccc(-c5scnc5C)cc4)C(C)(C)C)CC(O)C3(C)C=C3C(COC)CCC3C(C)C2O)C(O)C(O)C1O (stereo not drawn) [CV2p]
- binding to the 14-3-3/ERα complex (14-3-3σ/ERα complex [7]): highest apparent potency
- ubiquitination of the 14-3-3ζ/ERα(LBD_F) complex [3]: robust polyubiquitination
- E2 requirement of ubiquitination ([3]; UBE2D2 vs UBE2R1): observed only with UBE2D2
- ubiquitination of assembled complex vs apo-14-3-3 ([3]; up to 24 h): preferential ubiquitination of the assembled 14-3-3ζ/ERα^(LBD_F) complex over apo-14-3-3

SMILES: C=CC(C)(C)OCC1OC(OC2C3=C(C(C)CNC(=O)CCCCCCCCCCCCCCCCCC(=O)NC(C(=O)N4CC(O)CC4C(=O)NCc4ccc(-c5scnc5C)cc4)C(C)(C)C)CC(O)C3(C)C=C3C(COC)CCC3C(C)C2O)C(O)C(O)C1O (stereo not drawn) [CV3a]
- VCB recruitment to 14-3-3, TR-FRET signal [2]: markedly reduced recruitment
- ubiquitination of the 14-3-3ζ/ERα(LBD_F) complex [3]: robust polyubiquitination

SMILES: C=CC(C)(C)OC[C@H]1O[C@H](O[C@@H]2C3=C([C@H](C)CNC(C)=O)C[C@H](O)[C@]3(C)/C=C3/[C@@H](COC)CC[C@H]3[C@@H](C)[C@H]2O)[C@H](O)[C@@H](O)[C@@H]1O [FC-NAc, 3′-deacetylated fusicoccin N-acetyl]
- EC50 (14-3-3σ/ERα complex [8]): 15 nM

SMILES: CC(=O)N[C@H](C(=O)N1C[C@H](O)C[C@H]1C(=O)NCc1ccc(-c2scnc2C)cc1)C(C)(C)C [VH032, reference compound]
- binding to the 14-3-3/ERα complex (14-3-3σ/ERα complex [7]): did not engage the 14-3-3/ERα complex
